According to ChEMBL document CHEMBL4411323 (Bioorg Med Chem, 2019):

target: Serine/threonine-protein kinase B-raf (Homo sapiens, UniProt P15056, V600E); assay: Inhibition of human BRAF V600E mutant using myelin basic protein as substrate measured after 40 mins in presence of [gamma33P-ATP] by scintillation counting method
Sequence (P15056 2-766 V600E limits assumed): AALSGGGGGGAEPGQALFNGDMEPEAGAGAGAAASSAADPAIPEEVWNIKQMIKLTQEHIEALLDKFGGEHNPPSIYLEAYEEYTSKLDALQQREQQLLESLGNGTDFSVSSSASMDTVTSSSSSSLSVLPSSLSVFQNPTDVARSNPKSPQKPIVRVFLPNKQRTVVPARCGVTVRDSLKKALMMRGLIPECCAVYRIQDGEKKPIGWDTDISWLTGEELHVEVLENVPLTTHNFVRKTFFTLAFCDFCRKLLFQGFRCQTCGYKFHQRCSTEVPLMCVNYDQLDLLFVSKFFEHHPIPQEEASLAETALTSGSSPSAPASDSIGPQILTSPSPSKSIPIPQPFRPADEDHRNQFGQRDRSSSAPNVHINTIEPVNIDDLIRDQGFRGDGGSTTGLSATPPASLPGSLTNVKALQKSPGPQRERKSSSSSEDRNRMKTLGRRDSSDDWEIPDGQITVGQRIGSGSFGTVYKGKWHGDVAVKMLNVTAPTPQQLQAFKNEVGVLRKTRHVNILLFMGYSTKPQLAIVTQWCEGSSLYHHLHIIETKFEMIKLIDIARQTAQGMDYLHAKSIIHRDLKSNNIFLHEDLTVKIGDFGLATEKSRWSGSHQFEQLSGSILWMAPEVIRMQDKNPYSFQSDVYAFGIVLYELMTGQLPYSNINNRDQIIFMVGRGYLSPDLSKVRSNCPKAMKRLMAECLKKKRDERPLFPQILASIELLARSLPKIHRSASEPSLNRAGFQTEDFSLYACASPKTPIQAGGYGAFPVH

Structure (SMILES)	IC50 [µM]
O=C(Nc1cccc(-n2cc(-c3ccncc3)c(-c3cc(O)cc(Cl)c3)n2)c1)Nc1ccc(Cl)c(C(F)(F)F)c1	0.007
COc1cc(Cl)cc(-c2nn(-c3cccc(NC(=O)Nc4ccc(Cl)c(C(F)(F)F)c4)c3)cc2-c2ccncc2)c1	0.189
COc1cc(Cl)cc(-c2nn(-c3cccc(NC(=O)c4ccc(Cl)c(Cl)c4)c3)cc2-c2ccncc2)c1	87.2
O=C(Nc1ccccc1)Nc1cccc(-n2cc(-c3ccncc3)c(-c3cc(O)cc(Cl)c3)n2)c1	0.919
O=C(Nc1cccc(-n2cc(-c3ccncc3)c(-c3cc(O)cc(Cl)c3)n2)c1)c1ccc(N2CCOCC2)c(C(F)(F)F)c1	0.014
O=C(Nc1cccc(-n2cc(-c3ccncc3)c(-c3cc(O)cc(Cl)c3)n2)c1)Nc1ccc(Cl)c(Cl)c1	0.045
COc1cc(Cl)cc(-c2nn(-c3cccc(NC(=O)c4cccc(C(F)(F)F)c4)c3)cc2-c2ccncc2)c1	0.16
COc1cc(Cl)cc(-c2nn(-c3cccc(NC(=O)Nc4cccc(C(F)(F)F)c4)c3)cc2-c2ccncc2)c1	0.475
COc1cc(Cl)cc(-c2nn(-c3cccc(NC(=O)c4ccc(N5CCOCC5)c(C(F)(F)F)c4)c3)cc2-c2ccncc2)c1	0.348
COc1cc(Cl)cc(-c2nn(-c3cccc(NC(=O)Nc4ccccc4)c3)cc2-c2ccncc2)c1	0.488

Further compounds by falling IC50, results first:

IC50 [µM]	Structure (SMILES)
7.41	COc1cc(Cl)cc(-c2nn(-c3cccc(NC(=O)c4cc(C(F)(F)F)cc(C(F)(F)F)c4)c3)cc2-c2ccncc2)c1
3.69	COc1cc(Cl)cc(-c2nn(-c3cccc(NC(=O)c4ccccc4)c3)cc2-c2ccncc2)c1
2.11	O=C(Nc1cccc(-n2cc(-c3ccncc3)c(-c3cc(O)cc(Cl)c3)n2)c1)Nc1cc(C(F)(F)F)cc(C(F)(F)F)c1
0.251	COc1cc(Cl)cc(-c2nn(-c3cccc(NC(=O)Nc4ccc(Cl)c(Cl)c4)c3)cc2-c2ccncc2)c1
0.212	O=C(Nc1cccc(-n2cc(-c3ccncc3)c(-c3cc(O)cc(Cl)c3)n2)c1)c1cc(C(F)(F)F)cc(C(F)(F)F)c1
0.047	O=C(Nc1cccc(-n2cc(-c3ccncc3)c(-c3cc(O)cc(Cl)c3)n2)c1)c1ccc(Cl)c(Cl)c1
0.038	O=C(Nc1cccc(-n2cc(-c3ccncc3)c(-c3cc(O)cc(Cl)c3)n2)c1)c1cccc(C(F)(F)F)c1
0.03	O=C(Nc1cccc(-n2cc(-c3ccncc3)c(-c3cc(O)cc(Cl)c3)n2)c1)Nc1cccc(C(F)(F)F)c1
0.026	O=C(Nc1cccc(-n2cc(-c3ccncc3)c(-c3cc(O)cc(Cl)c3)n2)c1)c1ccccc1
